These are literature values, as cited in US20060024344A1 (priority 2004, published 2006).

“Also recorded” adds a separate entry of the source.

Test systems include fish in schoold; human tongue; human skin; captive lemon sharks.
What all share (conditions): in vivo
Data set [1] deals with rainbow trout, blugill and channel catfish.
Data set [2] concerns sharks.
In data set [3] the test system is sharks. This is another data set of the same source.
Data set [4] relates to sharks. This is another data set of the same source.

Consider `C=CCN=C=S` [allyl isothiocyanate], for which the “observed effect on fish” value with fish in schoold is on record as “strongly stimulated the entire body”.
Turning to `COc1ccc(O)c(C(C)(C)C)c1` [butylated hydroxyanisole], the “toxicity for fishes compared with zebra mussel” value in data set [1] was “substantially greater”.
Take `COc1cc(CNC(=O)CCCC/C=C/C(C)C)ccc1O` [capsaicin, 8-methyl-n-vanillyl-6-nonenamide]: in the data set on human tongue, the “concentration at which detected in humans” value was 0.1 µg/mL, the “concentration provoking a sensation of perceptible warmth on tongue” value is 1 µg/mL and the “concentration provoking a sensation of persistent burning on tongue” value is 10 µg/mL. In the data set on human skin, the “skin reaction (flare, irritation)” value was “no flare and irritation”; the “skin temperature below which burning pain and hyperaesthesia cease completely” value was “below 28 deg C”. In addition, in the data set on human skin (sc), the “concentration producing perceptible warmth at subcutaneous and intramuscular level” value is 10 µg/mL; the “concentration producing persistent burning at subcutaneous and intramuscular level” value is 100 µg/mL.
For the compound `CCS` [ethyl mercaptan], the “observed effect on fish” value in the data set on fish in schoold was “induced tetanic paralysis”.
For `CC1(C)[C@@H]2CC[C@@]1(C)[C@H](OC(=O)CSC#N)C2` [isobornyl thiocyanoacetate], the “observed effect on fish” value in the data set on fish in schoold is given as “induced tetanic paralysis”.
With `CC(=O)OC[C@H](C)CCC[C@@H](C)[C@H]1CCC2C3C(C[C@H](O)[C@@]21C)[C@@]1(C)CC[C@@H](O)C[C@H]1C[C@H]3O[C@@H]1O[C@H](CO)[C@H](O)[C@H](O)[C@H]1O` (stereo partly drawn) [mosesin-4], the shark repellent activity result in the data set with sharks [2] is listed as “shows shark repellent activity”.
With `O=C(CBr)c1ccccc1` [phenacyl bromide], the “observed effect on fish” value in the data set with fish in schoold is “seriously irritated the eyes and impaired vision”.
As to `O=C(CCl)c1ccccc1` [phenacyl chloride], the “observed effect on fish” value in the data set with fish in schoold was “seriously irritated the eyes and impaired vision”.
For the compound `Oc1ccccc1` [phenol], in the data set on fish in schoold, the “observed effect on fish” value is given as “strongly stimulated the entire body”.
As to `O=S([O-])O.[Na+]` [sodium bisulfite], the “observed effect on fish” value in the data set on fish in schoold is “respiratory impairment”.
In the case of `CCCCCCCCCCOS(=O)(=O)[O-].[Na+]` [sodium decyl sulfate], the “efficiency to repel sharks” value in the data set with sharks [3] is on record as “revealed efficiency to repel sharks”.
`CCCCCCCCCCCCOS(=O)(=O)[O-].[Na+]` [sodium dodecyl sulfate]: the shark repellent effect entry with captive lemon sharks is reported as “strongly repelled sharks”. For the same compound, in the data set with sharks [3], the “efficiency to repel sharks” value is given as “revealed efficiency to repel sharks”.
For the compound `CCCCCCCCCCCCCCCCCCOS(=O)(=O)[O-].[Na+]` [sodium octadecyl sulfate], the “efficiency to repel sharks” value with sharks [3] was “revealed efficiency to repel sharks”.
In the case of `CCCCCCCCOS(=O)(=O)[O-].[Na+]` [sodium octyl sulfate], the “efficiency to repel sharks” value in the data set with sharks [3] was “revealed efficiency to repel sharks”.
For `CCCCCCCCCCCCCCOS(=O)(=O)[O-].[Na+]` [sodium tetradecyl sulfate], in the data set on sharks [3], the “efficiency to repel sharks” value was “revealed efficiency to repel sharks”.
Turning to `O=C(OC[C@H]1O[C@@H](OC(=O)c2cc(O)c(O)c(OC(=O)c3cc(O)c(O)c(O)c3)c2)[C@H](OC(=O)c2cc(O)c(O)c(OC(=O)c3cc(O)c(O)c(O)c3)c2)[C@@H](OC(=O)c2cc(O)c(O)c(OC(=O)c3cc(O)c(O)c(O)c3)c2)[C@@H]1OC(=O)c1cc(O)c(O)c(OC(=O)c2cc(O)c(O)c(O)c2)c1)c1cc(O)c(O)c(OC(=O)c2cc(O)c(O)c(O)c2)c1` [tannic acid], the “toxicity for fishes compared with zebra mussel” value in data set [1] was “substantially greater”.
For the compound `N#CSCCCCC(Cl)(Cl)Cl` [thiocyanic acid 5,5,5-trichloro amyl ester], in the data set on fish in schoold, the “observed effect on fish” value is “flaccid paralysis; also recorded: respiratory impairment”.
Take copper acetate: in the data set on sharks [4], the “effectivity as a shark deterrent” value was “reduced effectivity as a deterrent”.
Turning to magnesium dodecyl sulfate, the “efficiency to repel sharks” value in the data set with sharks [3] is recorded as “revealed efficiency to repel sharks”.
In the case of sodium dodecyl ether sulfate, the “efficiency to repel sharks” value with sharks [3] is “revealed efficiency to repel sharks”.
